Results taken from ChEMBL document CHEMBL3431459, “Roche carnitine palmitoyltransferase modulator screening data (supplementary data associated with the publication CHEMBL2216752)”.
Converted amounts (≈) assume the structure as drawn.

Experiments:
[1] = SUPPLEMENTARY: PAMPA permeability assay; format: physicochemical; conditions: read-out: Permeability
[2] = molecular target: T1, Carnitine O-palmitoyltransferase 1, muscle isoform (Homo sapiens, UniProt Q92523); assay: SUPPLEMENTARY: Inhibition of Carnitine palmitoyltransferase 1, muscle isoform; design: species or system Muscle tissue
T1 sequence (Q92523 whole entry): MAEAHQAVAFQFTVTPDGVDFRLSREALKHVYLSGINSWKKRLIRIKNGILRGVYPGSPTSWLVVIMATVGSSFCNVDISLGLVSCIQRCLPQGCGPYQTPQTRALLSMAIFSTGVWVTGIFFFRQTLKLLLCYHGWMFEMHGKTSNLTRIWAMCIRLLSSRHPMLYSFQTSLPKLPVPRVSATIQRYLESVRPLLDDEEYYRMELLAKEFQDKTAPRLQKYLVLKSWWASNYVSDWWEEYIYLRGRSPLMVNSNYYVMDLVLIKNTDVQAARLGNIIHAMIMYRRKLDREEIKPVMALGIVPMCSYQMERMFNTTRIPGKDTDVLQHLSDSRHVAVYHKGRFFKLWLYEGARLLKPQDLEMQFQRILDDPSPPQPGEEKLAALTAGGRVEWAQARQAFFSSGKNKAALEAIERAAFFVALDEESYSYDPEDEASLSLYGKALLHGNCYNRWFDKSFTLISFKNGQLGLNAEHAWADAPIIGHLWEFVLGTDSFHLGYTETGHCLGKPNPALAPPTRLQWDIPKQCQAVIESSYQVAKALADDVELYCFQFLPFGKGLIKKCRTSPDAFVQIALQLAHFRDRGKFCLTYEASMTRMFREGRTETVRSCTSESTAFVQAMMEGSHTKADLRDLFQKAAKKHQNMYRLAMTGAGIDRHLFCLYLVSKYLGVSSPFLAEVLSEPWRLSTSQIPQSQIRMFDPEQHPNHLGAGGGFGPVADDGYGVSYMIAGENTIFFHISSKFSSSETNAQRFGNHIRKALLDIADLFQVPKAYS

[3] = SUPPLEMENTARY: Lipophilicity (log D) Determination by high-throughput shake-flask; format: physicochemical; conditions: octanol/water
[4] = SUPPLEMENTARY: Lyophilisation Solubility Assay (LYSA); format: physicochemical; conditions: read-out: Kinetic_solubility
[5] = molecular target: T2, Carnitine O-palmitoyltransferase 1, liver isoform (Homo sapiens, UniProt P50416); assay: (§1) SUPPLEMENTARY: Inhibition of Carnitine palmitoyltransferase 1, liver isoform
T2 sequence (P50416 whole entry): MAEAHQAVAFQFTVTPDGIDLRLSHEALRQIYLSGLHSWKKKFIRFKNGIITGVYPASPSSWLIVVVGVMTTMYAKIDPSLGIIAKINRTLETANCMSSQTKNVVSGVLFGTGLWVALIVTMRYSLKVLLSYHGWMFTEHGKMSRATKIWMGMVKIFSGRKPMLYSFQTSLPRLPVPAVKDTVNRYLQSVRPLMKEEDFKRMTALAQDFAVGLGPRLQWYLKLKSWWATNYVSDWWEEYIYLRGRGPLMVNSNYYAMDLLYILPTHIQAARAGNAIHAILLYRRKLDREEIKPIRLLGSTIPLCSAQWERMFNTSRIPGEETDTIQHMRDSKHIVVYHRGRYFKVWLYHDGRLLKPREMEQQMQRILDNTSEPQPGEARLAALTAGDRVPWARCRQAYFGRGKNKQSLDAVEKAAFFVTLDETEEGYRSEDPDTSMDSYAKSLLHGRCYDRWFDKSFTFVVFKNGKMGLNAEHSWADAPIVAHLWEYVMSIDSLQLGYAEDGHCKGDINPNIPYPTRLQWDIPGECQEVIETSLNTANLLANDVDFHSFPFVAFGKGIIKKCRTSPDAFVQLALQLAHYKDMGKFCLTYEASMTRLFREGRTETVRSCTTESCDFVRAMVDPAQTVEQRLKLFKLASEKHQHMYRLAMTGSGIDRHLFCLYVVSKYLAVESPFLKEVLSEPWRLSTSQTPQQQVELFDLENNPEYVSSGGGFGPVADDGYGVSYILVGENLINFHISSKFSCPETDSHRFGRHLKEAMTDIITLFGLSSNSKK

[6] = molecular target: T3, Carnitine O-palmitoyltransferase 1, liver isoform (Rattus norvegicus, UniProt P32198); assay: as §1
T3 sequence (P32198 whole entry): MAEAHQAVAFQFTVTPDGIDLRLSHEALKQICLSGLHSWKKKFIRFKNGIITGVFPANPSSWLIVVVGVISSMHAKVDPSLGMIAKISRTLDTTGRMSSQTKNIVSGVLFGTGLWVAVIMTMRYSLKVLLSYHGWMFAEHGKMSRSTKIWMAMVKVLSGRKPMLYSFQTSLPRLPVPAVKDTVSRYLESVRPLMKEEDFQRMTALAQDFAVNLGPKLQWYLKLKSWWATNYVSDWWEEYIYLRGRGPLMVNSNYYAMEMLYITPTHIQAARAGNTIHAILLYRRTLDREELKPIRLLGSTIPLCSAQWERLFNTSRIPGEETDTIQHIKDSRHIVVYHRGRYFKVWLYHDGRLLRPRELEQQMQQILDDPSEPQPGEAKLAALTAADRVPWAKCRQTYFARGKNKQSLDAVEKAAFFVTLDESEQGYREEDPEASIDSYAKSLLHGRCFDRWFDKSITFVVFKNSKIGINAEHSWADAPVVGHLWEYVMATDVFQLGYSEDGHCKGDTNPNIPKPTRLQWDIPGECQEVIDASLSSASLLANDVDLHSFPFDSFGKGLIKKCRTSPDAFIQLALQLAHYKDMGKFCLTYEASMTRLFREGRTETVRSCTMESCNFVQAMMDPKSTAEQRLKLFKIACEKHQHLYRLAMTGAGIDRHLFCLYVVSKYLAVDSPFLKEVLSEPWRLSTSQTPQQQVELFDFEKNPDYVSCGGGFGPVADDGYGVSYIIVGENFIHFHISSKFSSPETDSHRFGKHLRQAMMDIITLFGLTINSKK

[7] = molecular target: T4, Carnitine O-palmitoyltransferase 2, mitochondrial (Homo sapiens, UniProt P23786); assay: (§2) SUPPLEMENTARY: Inhibition of Carnitine palmitoyltransferase 2
T4 sequence (P23786 whole entry): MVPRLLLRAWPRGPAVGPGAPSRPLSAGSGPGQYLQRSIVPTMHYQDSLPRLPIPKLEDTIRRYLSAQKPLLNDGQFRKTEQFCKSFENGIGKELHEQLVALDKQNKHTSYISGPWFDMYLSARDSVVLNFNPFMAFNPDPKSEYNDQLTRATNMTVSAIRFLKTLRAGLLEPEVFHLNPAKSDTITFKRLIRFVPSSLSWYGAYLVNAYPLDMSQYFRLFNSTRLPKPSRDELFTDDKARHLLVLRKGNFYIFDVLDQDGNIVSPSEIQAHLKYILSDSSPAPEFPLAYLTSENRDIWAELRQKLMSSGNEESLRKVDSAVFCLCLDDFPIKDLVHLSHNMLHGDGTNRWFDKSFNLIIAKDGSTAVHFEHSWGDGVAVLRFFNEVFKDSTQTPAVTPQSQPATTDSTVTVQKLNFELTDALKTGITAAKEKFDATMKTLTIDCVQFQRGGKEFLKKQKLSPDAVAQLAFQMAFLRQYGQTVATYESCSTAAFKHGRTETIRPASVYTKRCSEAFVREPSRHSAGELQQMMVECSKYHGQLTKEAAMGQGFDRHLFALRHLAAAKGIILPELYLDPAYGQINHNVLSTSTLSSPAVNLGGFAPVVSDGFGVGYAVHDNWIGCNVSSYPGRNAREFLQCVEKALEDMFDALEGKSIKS

[8] = molecular target: T5, Carnitine O-palmitoyltransferase 2, mitochondrial (Rattus norvegicus, UniProt P18886); assay: as §2
T5 sequence (P18886 whole entry): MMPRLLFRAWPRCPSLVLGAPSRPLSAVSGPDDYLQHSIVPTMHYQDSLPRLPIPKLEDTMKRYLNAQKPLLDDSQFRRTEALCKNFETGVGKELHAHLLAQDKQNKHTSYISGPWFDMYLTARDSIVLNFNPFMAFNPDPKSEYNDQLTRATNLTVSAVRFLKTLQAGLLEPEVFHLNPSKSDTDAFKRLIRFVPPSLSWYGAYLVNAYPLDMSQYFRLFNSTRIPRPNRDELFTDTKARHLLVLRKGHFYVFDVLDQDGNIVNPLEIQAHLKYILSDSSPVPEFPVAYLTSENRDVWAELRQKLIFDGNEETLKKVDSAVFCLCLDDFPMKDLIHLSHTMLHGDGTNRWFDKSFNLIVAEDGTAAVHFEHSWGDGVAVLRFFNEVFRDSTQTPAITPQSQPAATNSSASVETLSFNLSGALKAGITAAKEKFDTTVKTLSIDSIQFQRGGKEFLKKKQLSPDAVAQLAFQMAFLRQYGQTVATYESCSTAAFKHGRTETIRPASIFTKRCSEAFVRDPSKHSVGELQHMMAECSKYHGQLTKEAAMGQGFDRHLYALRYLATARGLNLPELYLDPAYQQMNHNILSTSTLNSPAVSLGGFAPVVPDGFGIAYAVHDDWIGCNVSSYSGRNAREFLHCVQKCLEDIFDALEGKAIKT

Compound | Papp [1] | IC50 [2] | logD [3] | solubility kinetic [4] | IC50 [5] | IC50 [6] | IC50 [7] | IC50 [8]
COc1ccc(Cl)cc1S(=O)(=O)N1COc2ccc(C(=O)Nc3ccc(CC(=O)O)cc3)cc21 | 3.01 ×10⁻⁶ cm/s | 504 nM | 0.28 | 46 µg/mL (≈ 91.5 µM) | 159 nM | 165 nM | > 100 µM | > 100 µM
CCCN(c1cc(C(=O)Nc2nc(CC(=O)O)cs2)cc2c1OCO2)S(=O)(=O)c1cc(Cl)ccc1OC | 3.58 ×10⁻⁶ cm/s | 622 nM | 2.72 | 108 µg/mL (≈ 190 µM) | 124 nM | 131 nM | > 100 µM | > 100 µM
CN(C)C(=O)c1ccc(-c2noc(C3C4CC4CN3C(=O)COc3ccccc3)n2)cc1 (stereo unspecified) | 4.37 ×10⁻⁶ cm/s | > 100000 nM | 2.17 | 147 µg/mL (≈ 340 µM) | 165 nM | 1090 nM | 47.1 µM | 57.1 µM
O=C(O)c1ccc(NC(=O)c2ccc3c(c2)N(S(=O)(=O)c2cccc(Cl)c2)CC[S+]3[O-])cc1 (stereo unspecified) | 0.28 ×10⁻⁶ cm/s | 52200 nM | -0.14 | 3 µg/mL (≈ 5.94 µM) | 130 nM | 95.5 nM | > 100 µM | > 100 µM
COc1ccc(Cl)cc1CN1C(=O)OC(C)(C)c2ccc(C(=O)Nc3ccc(CC(=O)O)c(Cl)c3)cc21 | 1.36 ×10⁻⁶ cm/s | 1870 nM | 1.83 | 25 µg/mL (≈ 46 µM) | 331 nM |  | > 100 µM | > 100 µM
CN(Cc1ccccc1)C(=O)[C@H]1CCCCN1C(=O)COc1ccccc1 | 9.1 ×10⁻⁶ cm/s | > 100000 nM | 2.62 | 112 µg/mL (≈ 306 µM) | 1940 nM |  | 2.67 µM | 6.84 µM
COc1ccc2[nH]cc(C(=O)COc3ccncc3)c2c1 | 0.02 ×10⁻⁶ cm/s | > 100000 nM | 0.42 | 88 µg/mL (≈ 312 µM) | 658 nM |  | > 100 µM | > 100 µM
NS(=O)(=O)c1ccc2c(c1)CN(C(=O)[C@H]1CCCCN1C(=O)COc1ccccc1)CC2 | 4.46 ×10⁻⁶ cm/s | > 100000 nM | 1.41 | 175 µg/mL (≈ 382 µM) | 824 nM |  | 7.15 µM | 45.6 µM
COc1ccc(Cl)cc1S(=O)(=O)N1COc2c(C)cc(C(=O)Nc3ccc(CC(=O)O)cc3)cc21 | 3.17 ×10⁻⁶ cm/s | 2290 nM | 0.65 | 509 µg/mL (≈ 985 µM) | 375 nM |  | > 100 µM | > 100 µM
O=C(NCc1ccccc1)[C@H]1CCCCN1C(=O)COc1ccccc1 | 7.12 ×10⁻⁶ cm/s | > 100000 nM | 2.51 | 43 µg/mL (≈ 122 µM) | 2550 nM |  | > 100 µM | > 100 µM
COc1ccc(Cl)cc1CN1C(=O)OCc2ccc(C(=O)Nc3ccc(CC(=O)O)cc3)cc21 | 1.48 ×10⁻⁶ cm/s | 13000 nM | 0.06 | 44 µg/mL (≈ 91.5 µM) | 294 nM |  | > 100 µM | > 100 µM
COc1ccc(Cl)cc1S(=O)(=O)N(C)c1cccc(C(=O)Nc2nc(CC(=O)O)cs2)c1 | 2.48 ×10⁻⁶ cm/s | 1440 nM | 0.02 | > 549 µg/mL | 61.4 nM |  | > 100 µM | > 100 µM
COc1ccc(Cl)cc1S(=O)(=O)N1CCOc2ccc(C(=O)Nc3nc(CC(=O)O)cs3)cc21 | 1.62 ×10⁻⁶ cm/s | 423 nM | -0.01 | 26 µg/mL (≈ 49.6 µM) | 50.5 nM |  | > 100 µM | > 100 µM
O=C1CCC(=O)N1c1cccc(-c2n[nH]c([C@H]3CCCCN3C(=O)COc3ccccc3)n2)c1 | 3.3 ×10⁻⁶ cm/s | > 100000 nM | 1.51 | 172 µg/mL (≈ 373 µM) | 127 nM |  | 21.4 µM | 63.5 µM
COc1ccc(Cl)cc1S(=O)(=O)N1CC(C(=O)O)Oc2ccc(C(=O)Nc3cccc(F)c3)cc21 (stereo unspecified) | 0.14 ×10⁻⁶ cm/s |  | -0.02 | 521 µg/mL (≈ 1000 µM) | 16.2 nM | 30.1 nM | > 100 µM | > 100 µM
O=C(c1nc([C@H]2CCCCN2C(=O)COc2ccccc2)no1)N1CCOCC1 | 8.06 ×10⁻⁶ cm/s | > 100000 nM | 1.47 | > 467 µg/mL | 315 nM |  | 34.2 µM | > 100 µM
